Test systems include COLO 205 colon; OVCAR-5 ovarian; ACHN renal; MDA-MB-435; NCI-H460 lung; OVCAR-3 ovarian; SK-MEL-5 melanoma; 786-0 renal; CAKI-1 renal; SW-620 colon.
Assay in all cases: NCI-60 cell line screen, 48 h

Structures are written as SMILES.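 A five-concentration, 48-hour dose response in 96-well plates underlies each endpoint, interpolated linearly between surrounding concentrations. GI50 marks 50% less growth. TGI denotes the concentration required for complete inhibition of growth.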 Where only a bound is given, the exact number is not on record here.

This passage reports GI50 and TGI results from PubChem BioAssay (NCI).

In the case of `CC(C)[C@H](O)C(=O)N[C@@H](C)C(=O)N[C@@H]1C(=O)N(C)CCc2ccccc21`, the GI50 with COLO 205 colon, in the experiment on OVCAR-5 ovarian, in the experiment with ACHN renal, in the experiment on MDA-MB-435, in the experiment on NCI-H460 lung and in the experiment on OVCAR-3 ovarian was over 100 µM each time. The GI50 in the experiment on SK-MEL-5 melanoma, in the experiment on 786-0 renal, in the experiment on CAKI-1 renal and with SW-620 colon was over 100 µM throughout. For the same molecule, the TGI with COLO 205 colon, in the experiment on OVCAR-5 ovarian, with ACHN renal, with MDA-MB-435, in the experiment with NCI-H460 lung and in the experiment with OVCAR-3 ovarian was over 100 µM throughout. The TGI with SK-MEL-5 melanoma, with 786-0 renal, in the experiment with CAKI-1 renal and with SW-620 colon was over 100 µM throughout.

As for `CC1CC(O)C(=O)C(O[C@@H]2C[C@@H]3CC[C@@H]4[C@H](CC[C@]5(C)C(C6=CC(=O)OC6)CC[C@]45O)[C@@]3(C=O)C[C@H]2O)O1` (stereo not given in full), the TGI in the experiment on COLO 205 colon was found to be 0.491 µM; in the experiment with OVCAR-5 ovarian, 0.283 µM; with ACHN renal, 0.0406 µM; in the experiment with MDA-MB-435, 0.177 µM; in the experiment on NCI-H460 lung, 0.0414 µM; in the experiment on OVCAR-3 ovarian, 0.0346 µM. For the same molecule, the TGI was found to be 0.0174 µM in the experiment with SK-MEL-5 melanoma, 0.0341 µM in the experiment with 786-0 renal, 0.0597 µM in the experiment on CAKI-1 renal and 0.158 µM with SW-620 colon.

Consider `COc1ccc(-c2nc(-c3cc(OC)cc(OC)c3)[nH]c2-c2ccc(OC)cc2)cc1`, for which the GI50 with COLO 205 colon was 3.68 µM; in the experiment on OVCAR-5 ovarian it was over 100 µM; in the experiment with ACHN renal, 5.56 µM; in the experiment with MDA-MB-435, 5.98 µM; in the experiment on NCI-H460 lung, 5.98 µM; with OVCAR-3 ovarian, 5.95 µM. The GI50 in the experiment on SK-MEL-5 melanoma is 1.85 µM; with 786-0 renal, over 100 µM; in the experiment with CAKI-1 renal, 6.24 µM; in the experiment on SW-620 colon, 54.1 µM. Further, the TGI in the experiment with COLO 205 colon, in the experiment with OVCAR-5 ovarian, with ACHN renal, in the experiment with MDA-MB-435, in the experiment on NCI-H460 lung and in the experiment on OVCAR-3 ovarian was over 100 µM throughout. Besides, the TGI in the experiment with SK-MEL-5 melanoma is 3.7 µM; with 786-0 renal, over 100 µM; with CAKI-1 renal, over 100 µM; in the experiment on SW-620 colon, over 100 µM.
